From patent publication US20160002204A1 (Board of Regents, The University of Texas System, priority 2014, published 2016)

The molecules below were run against T1, GLS1 (purified recombinant human GAC) (Homo sapiens, UniProt O94925) (assay: GLS1 enzymatic activity assay (dual-coupled, Amplex UltraRed/resorufin)).
T1 sequence (O94925 55-598 isoform O94925-3 limits assumed): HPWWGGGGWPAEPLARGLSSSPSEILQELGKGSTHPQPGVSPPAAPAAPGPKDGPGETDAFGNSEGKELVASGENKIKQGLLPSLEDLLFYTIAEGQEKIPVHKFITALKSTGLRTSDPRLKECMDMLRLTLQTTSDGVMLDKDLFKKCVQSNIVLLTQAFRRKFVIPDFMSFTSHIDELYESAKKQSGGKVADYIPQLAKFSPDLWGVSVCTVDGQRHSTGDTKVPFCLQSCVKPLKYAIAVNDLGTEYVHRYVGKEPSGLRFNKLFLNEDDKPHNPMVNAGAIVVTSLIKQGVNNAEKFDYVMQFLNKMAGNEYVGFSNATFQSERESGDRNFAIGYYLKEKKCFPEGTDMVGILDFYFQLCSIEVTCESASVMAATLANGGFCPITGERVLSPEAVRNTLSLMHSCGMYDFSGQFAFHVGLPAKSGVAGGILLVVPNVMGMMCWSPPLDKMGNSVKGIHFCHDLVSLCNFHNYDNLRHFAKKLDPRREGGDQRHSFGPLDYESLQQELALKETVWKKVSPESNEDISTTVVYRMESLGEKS
Type: biochemical
Protocol: GLS1 Enzymatic Activity Assay
The inhibition of purified recombinant human GAC by varying concentrations of inhibitors is assessed via a dual-coupled enzymatic assay. The glutamate produced by the glutaminase reaction is used by glutamate oxidase to produce α-ketoglutarate, ammonia, and hydrogen peroxide, with this hydrogen peroxide subsequently being used by horseradish peroxidase to produce resorufin in the presence of Amplex UltraRed. The assay buffer consisted of 50 mM Hepes (pH 7.4), 0.25 mM EDTA and 0.1 mM Triton X-100. GAC was incubated with potassium phosphate (10 minutes at room temperature) prior to incubation with inhibitor (10 minutes at room temperature). The final reaction conditions were as follows: 2 nM GAC, 50 mM potassium phosphate, 100 mU/mL glutamate oxidase (Sigma), 1 mM glutamine (Sigma), 100 mU/mL horseradish peroxidase (Sigma), 75 μM Amplex UltraRed (Life Technologies), and 1% (v/v) DMSO. The production of resorufin was monitored on a Perkin Elmer Envision plate reader (excitation 530 nm, emission 590 nm) either in a kinetics or endpoint mode (at 20 minutes). IC50 values were calculated using a four-parameter logistic curve fit.

`CC(C)(C)OC(=O)NCc1cn(CCCCn2ccc(NC(=O)Cc3ccccc3)cc2=O)nn1` [Example 9, tert-Butyl N-[(1-{4-[2-oxo-4-(2-phenylacetamido)-1,2-dihydropyridin-1-yl]butyl}-1H-1,2,3-triazol-4-yl)methyl]carbamate] and `COCCNC(=O)c1nnc(CCCCn2ccc(NC(=O)Cc3ccccc3)cc2=O)s1` [Example 449, N-(2-methoxyethyl)-5-{4-[2-oxo-4-(2-phenylacetamido)-1,2-dihydropyridin-1-yl]butyl}-1,3,4-thiadiazole-2-carboxamide] fall in the same range of IC50: 500 to 5000 nM for the first, 500 to 5000 nM for the second.

`Nc1ccn(CCCCc2ccc(NC(=O)Cc3ccccc3)nn2)c(=O)n1` [Example 21, N-(6-(4-(4-amino-2-oxopyrimidin-1(2H)-yl)butyl)pyridazin-3-yl)-2-phenylacetamide] and `COCCCNc1ccn(CCCCc2ccc(NC(=O)Cc3ccccc3)nn2)c(=O)n1` [Example 25, N-(6-(4-(4-((3-methoxypropyl)amino)-2-oxopyrimidin-1(2H)-yl)butyl)pyridazin-3-yl)-2-phenylacetamide] fall in the same range of IC50: 500 to 5000 nM for the first, 500 to 5000 nM for the second.

`CC(C)CS(=O)(=O)Nc1ccn(CCCCc2ccc(NC(=O)Cc3ccccc3)nn2)c(=O)n1` [Example 26, N-(6-(4-(4-(2-methylpropylsulfonamido)-2-oxopyrimidin-1(2H)-yl)butyl)pyridazin-3-yl)-2-phenylacetamide] and `Nc1nnc(CCCCn2ccc(NC(=O)Cc3ccccc3)cc2=O)s1` [Example 30, N-{1-[4-(5-amino-1,3,4-thiadiazol-2-yl)butyl]-2-oxo-1,2-dihydropyridin-4-yl}-2-phenylacetamide] fall in the same range of IC50: 500 to 5000 nM for the first, 500 to 5000 nM for the second.

First: O=C(Cc1cccc(OC(F)(F)F)c1)Nc1ccn(CCCCn2cc(C(=O)NCc3ccccc3)nn2)c(=O)n1 [Example 115, N-benzyl-1-[4-(2-oxo-4-{2-[3-(trifluoromethoxy)phenyl]acetamido}-1,2-dihydropyrimidin-1-yl)butyl]-1H-1,2,3-triazole-4-carboxamide]
Second: O=C(Cc1ccccc1)Nc1ccn(CCCn2cc(C(=O)NCc3cccc(OC(F)(F)F)c3)nn2)c(=O)c1 [Example 436, 1-{3-[2-oxo-4-(2-phenylacetamido)-1,2-dihydropyridin-1-yl]propyl}-N-{[3-(trifluoromethoxy)phenyl]methyl}-1H-1,2,3-triazole-4-carboxamide]
The IC50 of the first is lower: 500 to 5000 nM for the first, greater than 5000 nM for the second.

`C[C@@H](NC(=O)c1ccn(CCCCn2cc(C(=O)NCc3cccc(OC(F)(F)F)c3)nn2)c(=O)c1)C(N)=O` [Example 137, 1-[4-(4-{[(1R)-1-carbamoylethyl]carbamoyl}-2-oxo-1,2-dihydropyridin-1-yl)butyl]-N-{[3-(trifluoromethoxy)phenyl]methyl}-1H-1,2,3-triazole-4-carboxamide] and `C[C@H](NC(=O)c1ccn(CCCCn2cc(C(=O)NCc3cccc(OC(F)(F)F)c3)nn2)c(=O)c1)C(N)=O` [Example 138, 1-[4-(4-{[(1S)-1-carbamoylethyl]carbamoyl}-2-oxo-1,2-dihydropyridin-1-yl)butyl]-N-{[3-(trifluoromethoxy)phenyl]methyl}-1H-1,2,3-triazole-4-carboxamide] fall in the same range of IC50: 500 to 5000 nM for the first, 500 to 5000 nM for the second.

`Nc1ccn(CCCCn2cc(C(=O)NCc3cccc(C(F)(F)F)c3)nn2)c(=O)c1` [Example 140, 1-[4-(4-amino-2-oxo-1,2-dihydropyridin-1-yl)butyl]-N-{[3-(trifluoromethyl)phenyl]methyl}-1H-1,2,3-triazole-4-carboxamide] and `CC(=O)Nc1ccn(CCCCn2cc(C(=O)NCc3cccc(C(F)(F)F)c3)nn2)c(=O)c1` [Example 142, 1-[4-(4-acetamido-2-oxo-1,2-dihydropyridin-1-yl)butyl]-N-{[3-(trifluoromethyl)phenyl]methyl}-1H-1,2,3-triazole-4-carboxamide] fall in the same range of IC50: 500 to 5000 nM for the first, 500 to 5000 nM for the second.

Compared with `CCN1CCC(CC(=O)Nc2ccn(CCCCn3cc(C(=O)NCc4cccc(OC(F)(F)F)c4)nn3)c(=O)c2)CC1` [Example 207, 1-(4-{4-[2-(1-ethylpiperidin-4-yl)acetamido]-2-oxo-1,2-dihydropyridin-1-yl}butyl)-N-{[3-(trifluoromethoxy)phenyl]methyl}-1H-1,2,3-triazole-4-carboxamide], `CCN1CCC(CC(=O)Nc2ccn(CCC(F)Cn3cc(C(=O)NCc4cccc(OC(F)(F)F)c4)nn3)c(=O)c2)CC1` (stereo not shown) [Example 218, 1-(4-{4-[2-(1-ethylpiperidin-4-yl)acetamido]-2-oxo-1,2-dihydropyridin-1-yl}-2-fluorobutyl)-N-{[3-(trifluoromethoxy)phenyl]methyl}-1H-1,2,3-triazole-4-carboxamide] is lower in IC50: 500 to 5000 nM for the first, 100 to 500 nM for the second. The second is the more potent here.

Compared with `CCOC(=O)c1cn(CC(F)CCn2ccc(NC(=O)CC3CCCCC3)c(F)c2=O)nn1` (stereo not shown) [Example 225, ethyl 1-{4-[4-(2-cyclohexylacetamido)-3-fluoro-2-oxo-1,2-dihydropyridin-1-yl]-2-fluorobutyl}-1H-1,2,3-triazole-4-carboxylate], `CC(C)(C)OC(=O)Nc1ccn(CCC(F)Cn2cc(C(=O)NCc3cccc(C(F)(F)F)n3)nn2)c(=O)c1F` (stereo not shown) [Example 319, tert-butyl N-(3-fluoro-1-{3-fluoro-4-[4-({[6-(trifluoromethyl)pyridin-2-yl]methyl}carbamoyl)-1H-1,2,3-triazol-1-yl]butyl}-2-oxo-1,2-dihydropyridin-4-yl)carbamate] is lower in IC50: 500 to 5000 nM for the first, 100 to 500 nM for the second.

`O=C1CN(CC(=O)Nc2ccn(CCC(F)Cn3cc(C(=O)NCc4cccc(OC(F)(F)F)c4)nn3)c(=O)c2)CCN1` (stereo not shown) [Example 230, 1-(2-fluoro-4-{2-oxo-4-[2-(3-oxopiperazin-1-yl)acetamido]-1,2-dihydropyridin-1-yl}butyl)-N-{[3-(trifluoromethoxy)phenyl]methyl}-1H-1,2,3-triazole-4-carboxamide] and `CN1CCN(CC(=O)Nc2ccn(CCC(F)Cn3cc(C(=O)NCc4cccc(OC(F)(F)F)c4)nn3)c(=O)c2)CC1` (stereo not shown) [Example 254, 1-(2-fluoro-4-{4-[2-(4-methylpiperazin-1-yl)acetamido]-2-oxo-1,2-dihydropyridin-1-yl}butyl)-N-{[3-(trifluoromethoxy)phenyl]methyl}-1H-1,2,3-triazole-4-carboxamide] fall in the same range of IC50: 100 to 500 nM for the first, 100 to 500 nM for the second.

`Nc1ccn(CCC(F)Cn2cc(C(=O)NCc3cccc(C(F)(F)F)n3)nn2)c(=O)c1F` (stereo not shown) [Example 321, 1-[4-(4-amino-3-fluoro-2-oxo-1,2-dihydropyridin-1-yl)-2-fluorobutyl]-N-{[6-(trifluoromethyl)pyridin-2-yl]methyl}-1H-1,2,3-triazole-4-carboxamide] and `Nc1ccn(CCC(F)Cn2cc(C(=O)NCc3cc(C(F)(F)F)ccn3)nn2)c(=O)c1F` (stereo not shown) [Example 322, 1-[4-(4-amino-3-fluoro-2-oxo-1,2-dihydropyridin-1-yl)-2-fluorobutyl]-N-{[4-(trifluoromethyl)pyridin-2-yl]methyl}-1H-1,2,3-triazole-4-carboxamide] cannot be ordered by IC50: greater than 5000 nM for the first, greater than 5000 nM for the second.

First: O=C(NCc1ccccc1)c1ccn(CCCn2cc(C(=O)NCc3cccc(OC(F)(F)F)c3)nn2)c(=O)c1 [Example 437, N-benzyl-2-oxo-1-{3-[4-({[3-(trifluoromethoxy)phenyl]methyl}carbamoyl)-1H-1,2,3-triazol-1-yl]propyl}-1,2-dihydropyridine-4-carboxamide]
Second: O=C(Cc1ccccn1)Nc1ccn(CCCCc2nnc(C(=O)NCc3ccccn3)s2)c(=O)c1 [Example 448, 5-(4-{2-oxo-4-[2-(pyridin-2-yl)acetamido]-1,2-dihydropyridin-1-yl}butyl)-N-(pyridin-2-ylmethyl)-1,3,4-thiadiazole-2-carboxamide]
The IC50 of the first is higher: greater than 5000 nM for the first, 500 to 5000 nM for the second.

Compared with `Cc1ccc(CNC(=O)c2nnc(CCCCn3ccc(NC(=O)Cc4ccccn4)cc3=O)s2)cn1` [Example 444, N-[(6-methylpyridin-3-yl)methyl]-5-(4-{2-oxo-4-[2-(pyridin-2-yl)acetamido]-1,2-dihydropyridin-1-yl}butyl)-1,3,4-thiadiazole-2-carboxamide], `O=C(Cc1ccccn1)Nc1ccn(CCCCc2nnc(C(=O)NCc3ncccc3F)s2)c(=O)c1` [Example 457, N-[(3-fluoropyridin-2-yl)methyl]-5-(4-{2-oxo-4-[2-(pyridin-2-yl)acetamido]-1,2-dihydropyridin-1-yl}butyl)-1,3,4-thiadiazole-2-carboxamide] is higher in IC50: 100 to 500 nM for the first, 500 to 5000 nM for the second. The first is the more potent here.

Work on `COCCNC(=O)c1nnc(CCCCn2ccc(NC(=O)Cc3ccccn3)cc2=O)s1` [Example 452, N-(2-methoxyethyl)-5-(4-{2-oxo-4-[2-(pyridin-2-yl)acetamido]-1,2-dihydropyridin-1-yl]butyl)-1,3,4-thiadiazole-2-carboxamide] yielded an IC50 of 500 to 5000 nM.
